# Assay results from ChEMBL document CHEMBL3112423, “Selective EP4 Antagonist May Be Useful in Treating Arthritis and Arthritic Pain” (ACS Med Chem Lett, 2014).
# Key:
# [1] = molecular target: T1, Prostaglandin E2 receptor EP1 subtype (Homo sapiens, UniProt P34995); experiment: Displacement of [3H]-PGE2 from human EP1 receptor expressed in recombinant HEK293 cell membranes after 90 mins by topcount scintillation counting analysis
# T1 sequence (P34995 whole entry): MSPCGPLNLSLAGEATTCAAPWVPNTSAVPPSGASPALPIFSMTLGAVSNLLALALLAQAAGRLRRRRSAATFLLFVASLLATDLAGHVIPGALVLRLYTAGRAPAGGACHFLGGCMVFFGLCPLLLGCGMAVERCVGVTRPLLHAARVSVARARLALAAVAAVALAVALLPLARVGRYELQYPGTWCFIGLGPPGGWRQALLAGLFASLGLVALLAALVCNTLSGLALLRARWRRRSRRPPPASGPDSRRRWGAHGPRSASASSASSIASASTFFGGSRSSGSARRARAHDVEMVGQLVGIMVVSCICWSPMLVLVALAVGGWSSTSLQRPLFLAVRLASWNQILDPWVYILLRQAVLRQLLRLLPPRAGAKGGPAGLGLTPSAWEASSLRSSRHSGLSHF
# [2] = molecular target: T2, Prostaglandin E2 receptor EP3 subtype (Homo sapiens, UniProt P43115); experiment: Displacement of [3H]-PGE2 from human EP3 receptor expressed in HEK293 cell membranes after 90 mins by topcount scintillation counting analysis
# T2 sequence (P43115 whole entry): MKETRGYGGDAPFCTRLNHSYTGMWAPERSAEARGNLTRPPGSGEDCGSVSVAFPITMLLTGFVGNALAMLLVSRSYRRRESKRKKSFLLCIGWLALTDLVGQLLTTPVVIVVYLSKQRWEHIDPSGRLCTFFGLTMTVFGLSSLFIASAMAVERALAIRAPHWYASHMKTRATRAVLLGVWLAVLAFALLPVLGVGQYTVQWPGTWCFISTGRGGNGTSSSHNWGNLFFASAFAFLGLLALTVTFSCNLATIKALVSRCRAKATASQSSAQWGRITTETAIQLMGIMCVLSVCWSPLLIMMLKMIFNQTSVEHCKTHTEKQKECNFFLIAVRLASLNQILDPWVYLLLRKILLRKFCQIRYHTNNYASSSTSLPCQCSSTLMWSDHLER
structure (smiles),measurement,setting,value
C[C@H](NC(=O)[C@H]1CCCCN1CCOc1ccccc1)c1ccc(C(=O)O)cc1,Ki,[1],> 17.5 µM
same,Ki,[2],> 14 µM
